The values that follow are results of earlier work, collected in patent US20040037903A1, “Phytonutrient formula for the relief of chronic pain resulting from inflammation” (priority 2003, published 2004).

In data set [1] the test system is 5-HETE. To be noted: in vivo in rats, curcumin added to the diet.
The test system of the next data set is TNF-α. The conditions noted are these: human cell lines.
A further data set deals with IL-8. The conditions noted are these: human cell lines.
The subject of the next data set is IL-1B. The conditions noted are these: human cell lines.
For the next data set, the system named is PGE2. To be noted: in vivo in rats, curcumin added to the diet.
The conditions of data set [2]: animal study, similar active dose.
Data set [3] deals with 5-HETE. The conditions noted are these: rat polymorphonuclear leukocytes.
The subject of the next data set is IL-6. The conditions noted are these: incubation of mouse macrophages with resveratrol.

As to `COc1cc(/C=C/C(=O)CC(=O)/C=C/c2ccc(O)c(OC)c2)ccc1O` [curcumin, diferuloyl methane], the “reduction of 5-HETE” value with 5-HETE [1] is recorded as 80%. The “inhibition of cytokine TNF-α” value in the data set with TNF-α was “at least 50%”. For the same compound, the “inhibition of cytokine IL-8” value with IL-8 was “at least 50%”. Moreover, the “inhibition of cytokine IL-1B” value with IL-1B is listed as “at least 50%”. Also, in the data set with PGE2, the “reduction of PGE2” value is 38%.
In the case of `CCCCC1C(=O)N(c2ccccc2)N(c2ccccc2)C1=O` [phenylbutazone], the ulcerogen index in data set [2] is on record as 1.7.
On to `Oc1ccc(/C=C/c2cc(O)cc(O)c2)cc1` [resveratrol, 3,5,4′-trihydroxy-trans-stilbene], for which the “inhibition of 5-HETE” value with 5-HETE [3] is “greater than 70%”. The “inhibition of the production of IL-6” value with IL-6 is on record as 34%.
